Tests used:
[1] = target: Recombinant human DDR2 (aa427-855 containing a GST tag) (Homo sapiens (Human), UniProt Q16832); experiment: LanthaScreen Eu Kinase Binding Assay DDR2; conditions: Kinase Tracer 178 10 nM, at least two independent replicates; for IC50: read-out: DDR2 pIC50 (converted)
Experimental: (§1) DDR1 and DDR2 Biochemical Assay Method The capacity of compounds to bind to DDR1 and DDR2 was quantified using a LanthaScreen Eu Kinase Binding Assay. Recombinant human DDR1 (2.5 nM; aa440-876 containing a GST tag) and DDR2 (1.75 nM; aa427-855 containing a GST tag) were diluted in assay buffer (50 mM HEPES pH7.3, 10 mM MgCl2, 1 mM EGTA and 0.01% Tween) with various concentrations of compound in a 384-well plate and a volume of 5 uL. After a 30-minute incubation at room temperature, 2.5 uL of Eu-anti GST antibody (diluted to 1 nM in assay buffer) plus Kinase Tracer 178 (diluted in assay buffer to 5 nM for DDR1 and 10 nM for DDR2) were added to the plate. Following 60-minute incubation at room temperature, time-resolved fluorescence was measured on a BMG Labtech PHERAstar plate reader. DMSO (1%) and reference compound (1 μM) were used to generate the Max and Min assay signals, respectively. Data was analysed using a four-parameter logistic model to calculate IC50 values, with at least two independent replicates were performed for each compound.

[2] = target: Recombinant human DDR1 (aa440-876 containing a GST tag) (Homo sapiens (Human), UniProt Q08345); experiment: LanthaScreen Eu Kinase Binding Assay DDR1; conditions: Kinase Tracer 178 5 nM, at least two independent replicates; for IC50: read-out: DDR1 pIC50 (converted)
Sequence of Recombinant human DDR1 (aa440-876 containing a GST tag) (Q08345 other isoform, or with tags, fused parts or gaps): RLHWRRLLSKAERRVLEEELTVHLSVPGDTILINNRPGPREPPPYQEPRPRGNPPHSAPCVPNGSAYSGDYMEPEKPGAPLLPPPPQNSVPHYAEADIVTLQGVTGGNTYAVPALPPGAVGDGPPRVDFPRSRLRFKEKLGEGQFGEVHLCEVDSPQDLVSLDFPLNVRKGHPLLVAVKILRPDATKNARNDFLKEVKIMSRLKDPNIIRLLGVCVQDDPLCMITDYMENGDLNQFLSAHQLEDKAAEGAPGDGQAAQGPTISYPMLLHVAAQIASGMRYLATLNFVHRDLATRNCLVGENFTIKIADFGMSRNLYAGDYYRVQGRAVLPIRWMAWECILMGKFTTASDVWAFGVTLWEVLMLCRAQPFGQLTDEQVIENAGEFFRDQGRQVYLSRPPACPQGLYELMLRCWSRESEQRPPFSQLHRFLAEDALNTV
Experimental: as §1

Sequence of Recombinant human DDR2 (aa427-855 containing a GST tag) (Q16832 427-855): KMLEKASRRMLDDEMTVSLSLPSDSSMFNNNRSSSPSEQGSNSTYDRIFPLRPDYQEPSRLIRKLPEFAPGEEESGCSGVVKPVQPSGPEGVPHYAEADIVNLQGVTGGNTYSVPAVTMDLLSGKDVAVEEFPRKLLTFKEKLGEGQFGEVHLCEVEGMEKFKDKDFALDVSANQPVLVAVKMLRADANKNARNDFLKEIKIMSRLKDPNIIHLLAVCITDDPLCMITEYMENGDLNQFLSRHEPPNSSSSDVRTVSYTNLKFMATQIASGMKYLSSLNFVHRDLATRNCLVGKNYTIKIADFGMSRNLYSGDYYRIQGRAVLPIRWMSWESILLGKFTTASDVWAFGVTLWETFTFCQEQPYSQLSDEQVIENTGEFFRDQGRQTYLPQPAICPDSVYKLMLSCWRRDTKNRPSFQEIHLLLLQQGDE

Structure (SMILES) | IC50 [1] [nM] | DDR1 pIC50 [2] | IC50 [2] [nM] | DDR2 pIC50 [1]
Cc1cccc2c1n(-c1cnc(-c3cncc4c3cnn4C)cn1)c(=O)n2CC(=O)NCC(F)(F)F [Example 47, 2-[4-methyl-3-[5-(1-methylpyrazolo[3,4-c]pyridin-4-yl)pyrazin-2-yl]-2-oxo-benzimidazol-1-yl]-N-(2,2,2-trifluoroethyl)acetamide] | 100 to 1000 | A (pIC50>8) | – | –
Cc1nc(-c2cncc3[nH]ncc23)ccc1-n1c(=O)n(CC(=O)NCC(F)(F)F)c2cccc(C)c21 [Example 94, 2-[4-methyl-3-[2-methyl-6-(1H-pyrazolo[3,4-c]pyridin-4-yl)-3-pyridyl]-2-oxo-benzimidazol-1-yl]-N-(2,2,2-trifluoroethyl)acetamide] | 10 to 100 | A (pIC50>8) | – | –
Cc1nc(-c2cncc3c2cnn3C)ccc1-n1c(=O)n(CC(=O)NCC(F)(F)F)c2cccc(C)c21 [Example 95, 2-[4-methyl-3-[2-methyl-6-(1-methylpyrazolo[3,4-c]pyridin-4-yl)-3-pyridyl]-2-oxo-benzimidazol-1-yl]-N-(2,2,2-trifluoroethyl)acetamide] | 100 to 1000 | A (pIC50>8) | – | –
Cc1cc(-c2cncc3c2cnn3C)ncc1-n1c(=O)n(CC(=O)N[C@@H](C)C(F)(F)F)c2cccc(C)c21 [Example 106] | 100 to 1000 | – | 10 to 100 | –
Cc1cccc2c1n(-c1ncc(-c3cncc4c3cnn4C)cn1)c(=O)n2CC(=O)NCC(F)(F)F [Example 66, 2-[4-methyl-3-[5-(1-methylpyrazolo[3,4-c]pyridin-4-yl)pyrimidin-2-yl]-2-oxo-benzimidazol-1-yl]-N-(2,2,2-trifluoroethyl)acetamide] | – | – | 10 to 100 | D (pIC50≤6)
Cn1ncc2c(-c3ccc(-n4c(=O)n(CC(=O)N5CCO[C@@H](C(F)(F)F)C5)c5ccccc54)cc3)cncc21 [Example 37, 1-[4-(1-methylpyrazolo[3,4-c]pyridin-4-yl)phenyl]-3-[2-oxo-2-[(2R)-2-(trifluoromethyl)morpholin-4-yl]ethyl]benzimidazol-2-one] | – | – | 10 to 100 | D (pIC50≤6)
Cc1cc(-c2cncc3c2cnn3C)ccc1-n1c(=O)n(CC(=O)NCC(F)(F)F)c2cccc(C)c21 [Example 16, 2-[4-methyl-3-[2-methyl-4-(1-methylpyrazolo[3,4-c]pyridin-4-yl)phenyl]-2-oxo-benzimidazol-1-yl]-N-(2,2,2-trifluoroethyl)acetamide] | 100 to 1000 | A (pIC50>8) | – | –
Cc1cc(-c2cncc3c2cnn3C)ccc1-n1c(=O)n(CC(=O)NCC(F)(F)F)c2ccccc21 [Example 13, 2-[3-[2-methyl-4-(1-methylpyrazolo[3,4-c]pyridin-4-yl)phenyl]-2-oxobenzimidazol-1-yl]-N-(2,2,2-trifluoroethyl)acetamide] | – | – | 10 to 100 | D (pIC50≤6)
Cc1cc(-c2cncc3c2cnn3C)ccc1-n1c(=O)n(CC(=O)NCC(F)(F)F)c2cccc(Cl)c21 [Example 83, 2-[4-chloro-3-[2-methyl-4-(1-methylpyrazolo[3,4-c]pyridin-4-yl)phenyl]-2-oxo-benzimidazol-1-yl]-N-(2,2,2-trifluoroethyl)acetamide] | 100 to 1000 | A (pIC50>8) | – | –
Cc1cccc2c1n(-c1ccc(-c3cncc4[nH]ncc34)cn1)c(=O)n2CC(=O)N[C@@H](C)C(F)(F)F [Example 69, 2-[4-methyl-2-oxo-3-[5-(1H-pyrazolo[3,4-c]pyridin-4-yl)-2-pyridyl]benzimidazol-1-yl]-N-[(1S)-2,2,2-trifluoro-1-methyl-ethyl]acetamide] | 10 to 100 | A (pIC50>8) | – | –
Cn1ncc2c(-c3ccc(-n4c(=O)n(CC(=O)N5CCC[C@H](C(F)(F)F)C5)c5ccccc54)cc3)cncc21 [Example 31, 1-[4-(1-methylpyrazolo[3,4-c]pyridin-4-yl)phenyl]-3-[2-oxo-2-[(3S)-3-(trifluoromethyl)-1-piperidyl]ethyl]benzimidazol-2-one] | – | A (pIC50>8) | – | D (pIC50≤6)
Cc1cccc2c1n(-c1ccc(-c3cncc4[nH]ncc34)cn1)c(=O)n2CC(=O)N1CCO[C@H](C(F)(F)F)C1 [Example 70, 4-methyl-1-[2-oxo-2-[(2S)-2-(trifluoromethyl)morpholin-4-yl]ethyl]-3-[5-(1H-pyrazolo[3,4-c]pyridin-4-yl)-2-pyridyl]benzimidazol-2-one] | 100 to 1000 | A (pIC50>8) | – | –
Cn1ncc2c(-c3ccc(-n4c(=O)n(CC(=O)N5CCCC(C(F)(F)F)C5)c5ccccc54)cc3)cncc21 (stereo not drawn) [Example 23, 1-[4-(1-methylpyrazolo[3,4-c]pyridin-4-yl)phenyl]-3-[2-oxo-2-[3-(trifluoromethyl)-1-piperidyl]ethyl]benzimidazol-2-one] | – | A (pIC50>8) | – | D (pIC50≤6)
Cc1cccc2c1n(-c1ccc(-c3cncc4c3cnn4C)nc1)c(=O)n2CC(=O)N[C@H](C)C(F)(F)F [Example 51, 2-[4-methyl-3-[6-(1-methylpyrazolo[3,4-c]pyridin-4-yl)-3-pyridyl]-2-oxo-benzimidazol-1-yl]-N-[(1R)-2,2,2-trifluoro-1-methyl-ethyl]acetamide] | 100 to 1000 | – | 10 to 100 | –
Cc1cccc2c1n(-c1ncc(-c3cncc4[nH]ncc34)cn1)c(=O)n2CC(=O)N[C@H](C)C(F)(F)F [Example 98, 2-[4-methyl-2-oxo-3-[5-(1H-pyrazolo[3,4-c]pyridin-4-yl)pyrimidin-2-yl]benzimidazol-1-yl]-N-[(1R)-2,2,2-trifluoro-1-methyl-ethyl]acetamide] | – | – | 100 to 1000 | D (pIC50≤6)
Cn1ncc2c(-c3ccc(-n4c(=O)n(CC(=O)N5CCC[C@H]5C(F)(F)F)c5cccnc54)cc3)cncc21 [Example 79, 3-[4-(1-methylpyrazolo[3,4-c]pyridin-4-yl)phenyl]-1-[2-oxo-2-[(2S)-2-(trifluoromethyl)pyrrolidin-1-yl]ethyl]imidazo[4,5-b]pyridin-2-one] | – | – | 10 to 100 | D (pIC50≤6)
Cc1cc(-c2cncc3[nH]ncc23)ccc1-n1c(=O)n(CC(=O)NCC(F)(F)F)c2ccccc21 [Example 14, 2-[3-[2-methyl-4-(1H-pyrazolo[3,4-c]pyridin-4-yl)phenyl]-2-oxobenzimidazol-1-yl]-N-(2,2,2-trifluoroethyl)acetamide] | 100 to 1000 | A (pIC50>8) | – | –
Cn1ncc2c(-c3ccc(-n4c(=O)n(CC(=O)NCC(F)(F)F)c5cccc(F)c54)cc3)cncc21 [Example 86, 2-[4-fluoro-3-[4-(1-methylpyrazolo[3,4-c]pyridin-4-yl)phenyl]-2-oxo-benzimidazol-1-yl]-N-(2,2,2-trifluoroethyl)acetamide] | – | – | 100 to 1000 | D (pIC50≤6)
CC(CC(F)(F)F)NC(=O)Cn1c(=O)n(-c2ccc(-c3cncc4c3cnn4C)cc2)c2ccccc21 (stereo not drawn) [Example 28, 2-[3-[4-(1-methylpyrazolo[3,4-c]pyridin-4-yl)phenyl]-2-oxo-benzimidazol-1-yl]-N-(3,3,3-trifluoro-1-methyl-propyl)acetamide] | – | A (pIC50>8) | – | D (pIC50≤6)
Cc1nc(-c2cncc3c2cnn3C)ccc1-n1c(=O)n(CC(=O)N[C@@H](C)C(F)(F)F)c2cccc(C)c21 [Example 113] | 100 to 1000 | – | 10 to 100 | –
Cc1cc(-c2cncc3c2c(C)nn3C)ncc1-n1c(=O)n(CC(=O)NCC(F)(F)F)c2cccc(C)c21 [Example 108] | – | – | 100 to 1000 | D (pIC50≤6)

Source: patent US20260055102A1 (Redx Pharma Limited, priority 2022, published 2026)
